In PubChem BioAssay (NCI) one finds TGI and GI50 data, which are given here for 24 molecules.

The structures appear in SMILES notation.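 Test compounds were applied to cells in 96-well plates for 48 hours at 5 doses. GI50: concentration for 50% inhibition of growth. TGI marks complete inhibition of growth.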

As a reminder, the TGI is the concentration at which net growth stops. The low end stands for more potent growth arrest, the high end for less potent growth arrest. The GI50 is the concentration at which growth is held to half of that of the control.

What all share (experiment): DTP human tumour cell line panel, 48 h
The test system of test [1] is CCRF-CEM leukemia.
The test system of test [2] is SK-OV-3 ovarian.
The test system of test [3] is KM12 colon.
Test [4] has as its system MCF7 breast.
The test system of test [5] is U251 CNS.
Test [6] has as its system EKVX NSCLC.
In test [7] the test system is SR leukemia.
In test [8] the test system is SK-MEL-2 melanoma.
The subject of test [9] is LOX IMVI melanoma.
In test [10] the test system is UACC-62 melanoma.
Test [11] has as its system SW-620 colon.
Test [12] deals with RXF 393 renal.

Turning to `CC1(C)O[C@H]2[C@@H]3N=C(c4ccccc4)O[C@@H]3C=C[C@H]2O1`, the TGI in [1], in [2], in test [3], in [4], in [5] and in test [6] was > 100 µM throughout. For the same molecule, the TGI in test [7], in test [8], in test [9], in test [10] and in test [11] was > 100 µM throughout.
As for `CC(=O)O[C@H]1CC[C@H]2[C@@H]3CCC4=C(C(=O)C=CC4(C)OC(C)=O)[C@H]3CC[C@]12C` (stereo not given in full), the TGI in [1] was > 100 µM; in [3] it was > 100 µM; in [4], 73.1 µM; in test [12], 92.1 µM; in test [5] it was > 100 µM; in [6], > 100 µM. Moreover, the TGI was > 100 µM in [7], > 100 µM in test [9], 74.5 µM in test [10] and > 100 µM in test [11].
As to `Cn1c(=O)c2nc3nnc(C#N)c(N)n3c2n(C)c1=O`, the TGI in test [1], in [2], in [3], in [4], in test [12] and in test [5] was > 100 µM in each case. In addition, the TGI in [6], in [7], in test [8] and in test [10] was > 100 µM in each case.
On to `CC(C)c1ccc2c(c1)C=C1OC(=O)[C@]3(C)CCC[C@@]2(C)C13` (stereo not given in full), for which the TGI in test [1], in test [2], in [3], in test [4], in [12] and in test [5] was > 100 µM in each case. Besides, the TGI in test [6], in test [7], in test [10] and in test [11] was > 100 µM in each case.
Consider `CC(C)CCNC(=O)c1ccc(CNC(=O)/C=C/c2csc(-c3ccccc3)n2)cc1`, for which the TGI is > 100 µM in test [1]; > 100 µM in test [2]; > 100 µM in test [3]; > 100 µM in test [4]; 73.6 µM in test [12]; 96.8 µM in test [5]. The TGI in [6], in test [8], in [9], in test [10] and in test [11] was > 100 µM in each case.
Take `CC(=O)N1C(C(=O)NNc2ccccc2)CSC1c1ccccc1` (stereo not given): the TGI in test [1], in test [2], in test [3], in test [4], in [5] and in test [6] was > 100 µM each time. Also, the TGI in [7] is > 100 µM; in test [8], > 100 µM; in test [9], > 100 µM; in test [10], 61.8 µM; in test [11], > 100 µM.
With `C[C@@H]1OC(=O)C[C@H]2CC(=O)N(CCC3CN(S(=O)(=O)C(F)(F)F)c4ccc(Cc5ccc6c(c5)C(CCN5C[C@H]7[C@@H](CC(=O)O[C@H]7C)CC5=O)CN6S(=O)(=O)C(F)(F)F)cc43)C[C@@H]21` (stereo not given in full), the TGI in [1], in test [2], in [3], in test [4], in test [12] and in test [5] was > 100 µM in each case. The TGI in test [6], in [8], in test [9], in [10] and in test [11] was > 100 µM each time.
For `Cc1cc(N(CCC#N)CCC#N)ccc1/C(N=Nc1ccccc1)=N\NC(=O)c1ccccc1`, the TGI is 61.7 µM in [1]; > 100 µM in test [2]; > 100 µM in test [3]; > 100 µM in test [4]; > 100 µM in test [12]; > 100 µM in [5]. Moreover, the TGI was > 100 µM in [6], 71.6 µM in test [7], > 100 µM in test [8] and 45.5 µM in test [10].
Consider `CC(=O)O[C@H]1[C@@H](OC2CCCC2(c2ccccc2)c2ccccc2)O[N+]([O-])=C[C@@]12COCc1cc3c(cc12)OCO3` (stereo not given in full), for which the TGI is > 24.5 µM in test [1]; > 91.6 µM in [2]; 11.3 µM in [3]; > 45.2 µM in test [4]; 17.5 µM in [12]; 22.6 µM in [5]. Also, the TGI in test [6] was > 25.7 µM; in test [7], > 23.6 µM; in [9], > 26.6 µM; in [10], 25.9 µM; in test [11], > 100 µM.
As for `O=C(Nc1ccccc1)Nn1c(-c2cccs2)nc2ccc(I)cc2c1=O`, the TGI in [1] is 60.8 µM; in test [2], 71.2 µM; in test [3] it was 94.8 µM; in test [4], 87.7 µM; in [12], > 100 µM; in test [5], 64.8 µM. Moreover, the TGI is 58.6 µM in test [6]; 47.9 µM in [7]; 49.1 µM in test [9]; > 100 µM in test [10]; > 100 µM in test [11].
On to `O=c1c2ccccc2c2c1c1c3ccccc3c(=O)c1c1c3ccccc3c(=O)c21`, for which the TGI in test [1], in test [2], in [3], in [4], in test [5] and in test [6] was > 100 µM in each case. Further, the TGI in test [7], in [8], in [9], in test [10] and in test [11] was > 100 µM in each case.
With `c1ccc(/N=N\Nc2ccc(-c3nc4ccccc4o3)cc2)nc1`, the TGI in test [2] was > 100 µM; in [3] it was > 100 µM; in test [4] it was > 100 µM; in test [5], > 100 µM; in test [6] it was 88.2 µM; in test [7] it was > 100 µM. Besides, the TGI was > 100 µM in [8], > 100 µM in [9], > 100 µM in [10] and 42.1 µM in test [11].
With `COc1cc(CNC(=O)[C@H](Cc2ccc(O)cn2)NC(C)=O)cc(OC)c1`, the TGI in [1], in test [2], in test [3], in [4], in test [12] and in test [5] was > 100 µM each time. Moreover, the TGI in test [6], in [8], in [9], in test [10] and in test [11] was > 100 µM in each case.
For `CCn1c(-c2ccccc2)nc2c1C(=O)c1ccccc1C2=O`, the TGI is > 100 µM in [1]; 86 µM in [2]; 73.8 µM in test [3]; > 100 µM in [4]; 50.9 µM in [12]; > 100 µM in test [5]. Also, the TGI in [7] was > 100 µM; in test [10] it was 60.2 µM; in test [11] it was > 100 µM.
As to `O=C1OC2c3ccccc3C(=O)C2(c2ccccc2)N1c1ccccc1` (stereo not given), the TGI in [1], in [2], in test [3], in test [4], in test [12] and in test [5] was > 200 µM each time. Further, the TGI in test [6], in [8], in test [9], in test [10] and in test [11] was > 200 µM throughout.
Consider `Cc1nc(N)c(N2CCN(Cc3ccccc3)CC2)c(=O)[nH]1`, for which the TGI in test [1], in [3], in [4], in test [5], in test [6] and in [7] was > 100 µM in each case. Also, the TGI in [8], in test [9] and in test [11] was > 100 µM throughout.
With `CC(=O)[O-].[Ni].c1ccc(/C(=N\Nc2ccccn2)c2ccccn2)cc1`, the GI50 in [1] is 0.0976 µM; in test [4], 6.58 µM; in test [6], 0.0973 µM. In addition, the TGI is 44.3 µM in test [1]; 43.2 µM in [2]; 23.1 µM in test [3]; 30.7 µM in test [4]; 30 µM in [12]; 22.7 µM in test [5]. The TGI in test [6] was 55.5 µM; in test [8] it was 24.9 µM; in [9], 22.3 µM; in [10], 18.8 µM; in [11], 32.2 µM.
As for `CN(C)CCCNC(=O)c1cc(NC(=O)c2cc(NC(=O)[C@H]3C[C@@H]3C(=O)Nc3cc(C(=O)Nc4cc(C(=O)NCCCN(C)C)n(C)c4)n(C)c3)cn2C)cn1C`, the TGI in test [1], in test [3], in test [4], in test [5], in test [6] and in [7] was > 100 µM in each case. In addition, the TGI in test [8], in [9] and in [11] was > 100 µM in each case.
With `COc1ccc(-c2oc3cc(OC)c(OC)c(OC)c3c(=O)c2OC)cc1OC`, the TGI in test [1], in test [2], in test [3], in test [4], in test [12] and in test [5] was > 100 µM in each case. Besides, the TGI in test [6], in test [8], in test [9], in test [10] and in test [11] was > 100 µM each time.
As to `NC1=NN(c2ccccc2)C2(c3ccncc3C(=O)O)C1C(N)=NN2c1ccccc1` (stereo not given), the TGI in test [1], in test [2], in [3], in [4], in test [12] and in [5] was > 100 µM each time. Also, the TGI in test [6], in test [8], in test [9], in [10] and in test [11] was > 100 µM each time.
In the case of `O=C1C=CC[C@H](/C=C/C[C@@H](O)C[C@H](O)/C=C/c2ccccc2)O1`, the TGI in [1] was determined as 19.1 µM; in test [2], 28.3 µM; in test [3] it was 24.7 µM; in test [4] it was 24.8 µM; in test [12], 22.1 µM; in test [5] it was 25.7 µM. In addition, the TGI in [6] was 25.2 µM; in test [8], 26.3 µM; in [9] it was 13.3 µM; in [10] it was 29.4 µM; in test [11], 27.4 µM.
Consider `COc1cc(-c2c3c([nH]c(=O)c2C#N)-c2cc([N+](=O)[O-])ccc2CCC3)cc(OC)c1OC`, for which the TGI in [1] is > 100 µM; in test [2] it was 66.4 µM; in test [3], > 100 µM; in [4] it was 44.5 µM; in test [12], 82.8 µM; in [5] it was > 100 µM. Besides, the TGI in test [6] is 70.5 µM; in [8] it was 44.3 µM; in [9] it was > 100 µM; in [10] it was 32.1 µM; in test [11] it was > 100 µM.
With `COc1cc(S(=O)(=O)Nc2ccc(-c3csc(N4C(=O)C(C)SC4c4ccccc4O)n3)cc2)ccc1Cl` (stereo not given), the TGI in test [1], in [2], in [3], in test [4], in test [6] and in test [7] was > 100 µM in each case. The TGI in test [8] was 91.7 µM; in test [9] it was > 100 µM; in [10], > 100 µM; in test [11], > 100 µM.
Turning to `NC(N)=NS(=O)(=O)c1ccc(Nc2c3ccccc3nc3c(C(=O)NC(CO)(CO)CO)cccc23)cc1`, the concentration for total growth inhibition (TGI) in test [1] is 54.8 µM; in test [2], > 100 µM; in test [3] it was 38.5 µM; in [4], 95.3 µM; in test [5], > 100 µM; in test [6] it was > 100 µM. The TGI was > 100 µM in test [7]; 50.8 µM in test [8]; > 100 µM in test [9]; 94.6 µM in [10]; > 100 µM in test [11].
